Results taken from patent publication US10881642B2, “Autophagy enhancer and use thereof” (Industry-Academic Cooperation Foundation, Yonsei University, priority 2016, dated 2021).
Marks after values point to notes of the source that are not given here.

What was measured:
calcineurin = assay: Calcineurin phosphatase activity assay; assay type: cell-based; conditions: lysates of Hepa1c1c7 cells
HFD-fed C57BL/6 mice = assay: Metabolic profile of HFD-fed mice (diet-induced obesity); assay type: in vivo; conditions: for non-fasting blood glucose level: 50 mg/kg 3 times a week
Method: FIG. 12 indicates the improvement of the metabolic profile of HFD-feed mice by MSL-7: (FIG. 12A) Confocal microscopic result of HeLa cells transfected with tandem mRFP-GFP-LC3 and treated with MSL-7 in which red puncta indicates autophagolysosome. (FIG. 12B, 12C) 8 week old male C57BL/6 mice were fed with HFD or normal chow diet (NCD) for 8 weeks, and then 50 mg/kg MSL-7 was administered three times a week for 8 weeks. Non-fasting glucose level (FIG. 12B) and body weight (FIG. 12C) were monitored. (FIG. 12D) IPGTT. (FIG. 12E) AUC curve of (FIG. 12D). (FIG. 12F) ITT. (FIG. 12G) AUC curve of (FIG. 12F).
Screening of autophagy enhancer. […] Luciferase assay. Firefly and Renilla luciferase assays were conducted using the Dual-Luciferase Reporter Assay System (Promega) according to the manufacturer's recommendation. In brief, cells were lysed in 1× lysis buffer and subjected to a single round of freezing/thawing. Firefly luciferase was determined after mixing 5 μl of lysate with 25 μl of Luciferase Assay Reagent II. Renilla luciferase was then determined after further addition of 20 ul of Stop&Glo Reagent. Cell culture and media and drugs treatment. HeLa, TFEB-GFP-HeLa, SK-HEP1 (hepatoma cell line) and Hepa1c1c7 (hepatoma cell line) cells were cultured in the following media: (normal) Dulbecco's modified Eagle's medium (DMEM, Sigma-Aldrich) supplemented with 10% FBS and 1% penicillin/streptomycin; (starvation) HBSS media with Ca and Mg supplemented with 10 mM HEPES; Drugs treatment: MSL compound (50-100 μM); Rapamycin ([…]); Torin-1 (1 μM); Bafilomycin (100 nM); Cyclosporin A (10 μM); and FK506 (5 μM). Cells were treated with oleic acid (400 μM) and palmitic acid (400 μM) for 24 h. Where indicated, cells were washed off with HBSS and replaced by DMEM with or without MSL for 16 h. INS-1 cells, a insulinoma cell line of […] were cultured as described previously (Kim et al., 2014 ibid) in the presence or absence of bafilomycin and treated with MSL-7. Lactate dehydrogenase (LDH) assay. Cytotoxicity was determined by the measurement of LDH release in cell culture media using the LDH kit (Roche), according to the protocol from the manufacturer. Transfection and plasmids. Cells were transiently transfected with DNA plasmids 3×FLAG-hTFEB (A Ballabio), FYVE-dsRed (Cantley LC), RFP-LC3 or mRFP-GFP-LC3 using lipofectamine 2000 (Invitrogen) according to the protocol from the manufacturer. INS-1 cells were transfected with prepro-mIAPP-HA or prepro-hIAPP-HA using jetPEIDNA according to the manufacturer's protocol. Imaging and image quantification. Imaging was performed with a ×40 objective on an LSM780 confocal microscope (Zeiss). Image analysis (spot count per cell) was performed using Image J. When indicated, cells were stained for lipid droplets with BODIPY 493/503 (Invitrogen, […], 20 min) according to the manufacturer's methods. Formation of acidic vesicular organelles was quantitated by staining the cells with acridine orange (Invitrogen, 5 ug/ml, 10 min). Antibodies and western blotting. Cells or tissues were solubilized in lysis buffer supplemented with protease and phosphatase inhibitors and protein concentration was measured by the Bradford method. Ten to 30 micrograms were loaded on 4-12% Bis-Tris gel (NUPAGE, Invitrogen) or 8-15% SDS-PAGE, transferred to PVDF membranes and analyzed by western blot using the ECL method (Pierce). The following antibodies were used: LC3 (Novus NB100-2331, 1:1,000), p62 (Progen GP62-C, 1:1,000), b-actin (Santa Cruz sc-47778, 1:5,000), FLAG (Sigma-Aldrich F1804, 1:2,000), 70S6K (Cell Signaling 9202S, 1:1000), p-70S6K (Cell Signaling 9206S, 1:1000), mTOR (Cell Signaling 2983, 1:1000), pmTOR (Cell Signaling 2971S, 1:1000), TFEB (Cell Signaling 4240, 1:1000). Protein levels were quantified by using ImageJ software analysis. RNA extraction, RT and real-time RT-PCR. […]

[1] = Liver microsomal stability; assay type: in vitro ADME; conditions: 30 min incubation with human liver microsome, 10 μM
ob/ob mice = assay: Toxicity: hemogram, blood chemistry and organ biopsy in ob/ob mice; assay type: in vivo; set-up: BUN: unit not given here; conditions: for level of liver enzymes: 8-week treatment; for CBC / fatty liver (major organ biopsy) / tissue histology of major organs (heart, kidney, muscle, spleen, lung, pancreas): 8 weeks; for tissue histology of major organs (heart, kidney, muscle, spleen, lung, pancreas): biopsy; for ALB / ALP / ALT / AST / BUN / CA / CPK / CRE / DBIL / GGT / LDH / TCHO / TG: blood chemistry; for BASO / EOS / MONO / NEU / LYM / WBC / RBC / HGB / HCT / PLT: hemogram; for BASO / EOS: normal range 0.0-0.2; for MONO: normal range 0.0-0.4; for NEU: normal range 0.1-2.4; for LYM: normal range 0.9-9.3; for WBC: normal range 1.8-10.7; for RBC: normal range 6.36-9.42; for HGB: normal range 11.0-15.1; for HCT: normal range 38.5-59.0; for PLT: normal range 592-2972
Method: Organs were harvested from ob/ob mice administered with MSL or MSL-7 for 8 weeks and stained with H&E for histological analysis. […] Other than that, no significant changes were observed (Scale Bar. 500 μm). […]
Finally, we studied whether MSL or MSL-7 has systemic toxicity. CBC was not changed by MSL or MSL-7 (Table 1).
Finally, in the present disclosure, the toxicity of the present enhancers were tested. The 8-week treatment of MSL or MSL-7 improved the metabolic profile, and reduced the level of liver enzymes (Table 1 below). […] In the major organ biopsy, there were found no side effects. Rather the fatty liver was improved (FIG. 14).
Table 1 indicates the hemogram and blood chemistry analyzed after administration of the present autophagy enhancer for 8 week in vivo. […] Other than that, there are no adverse changes were found.

Structure (SMILES)	calcineurin activity (calcineurin)	non-fasting blood glucose level (HFD-fed C57BL/6 mice; HFD, 8 weeks)	glucose tolerance / glucose intolerance (IPGTT) (HFD-fed C57BL/6 mice; HFD, 8 weeks)	microsomal stability, remaining [1]	level of liver enzymes (ob/ob mice)	CBC (ob/ob mice)	fatty liver (major organ biopsy) (ob/ob mice)	tissue histology of major organs (heart, kidney, muscle, spleen, lung, pancreas) (ob/ob mice)	ALB (ob/ob mice; 8 week) [g/dL]	ALP (ob/ob mice; 8 week)	ALT (ob/ob mice; 8 week)	AST (ob/ob mice; 8 week)	BUN (ob/ob mice; 8 week)	CA (ob/ob mice; 8 week) [mg/dL]	CPK (ob/ob mice; 8 week) [U/L]	CRE (ob/ob mice; 8 week) [mg/dL]	DBIL (ob/ob mice; 8 week) [mg/dL]	GGT (ob/ob mice; 8 week) [U/L]	LDH (ob/ob mice; 8 week)	TCHO (ob/ob mice; 8 week) [mg/dL]	other results
COc1oc(-c2ccccc2Cl)nc1S(=O)(=O)c1ccccc1 [MSL-7, 2-(2-chlorophenyl)-5-methoxy-4-(phenylsulfonyl) oxazole]	calcineurin activation in a dose-dependent manner	significantly reduced	significantly improved	90.5%	reduced	not changed	improved	no significant alteration	1.1 ± 1.0	278 ± 26.11^b U/L	146.9 ± 21.59^b U/L	153.8 ± 12.81^b U/L	20 ± 0.89	10.75 ± 0.32	241.3 ± 18.19	1 ± 0	<0.5	<5	810 ± 112.40^c U/L	136.9 ± 9.73	area under the curves (AUCs) of IPGTT and ITT (HFD-fed C57BL/6 mice; HFD, 8 weeks): reduced; body weight (HFD-fed C57BL/6 mice; HFD, 8 weeks): without changing the body weight; insulin sensitivity (ITT) (HFD-fed C57BL/6 mice; HFD, 8 weeks): significantly improved; glucose profile of lean or chow-fed mice (HFD-fed C57BL/6 mice; lean or chow-fed mice): does not affect; serum TG level and LDH level compared to MSL (ob/ob mice; 8 week): significantly lower; TG (ob/ob mice; 8 week): 78.6 ± 22.50^b mg/dL; BASO (ob/ob mice; 8 week): 0.01 ± 0.01 K/μL; EOS (ob/ob mice; 8 week): 0.04 ± 0.01 K/μL; MONO (ob/ob mice; 8 week): 0.28 ± 0.05 K/μL; NEU (ob/ob mice; 8 week): 1.97 ± 0.16 K/μL; LYM (ob/ob mice; 8 week): 3.97 ± 0.38 K/μL; WBC (ob/ob mice; 8 week): 6.26 ± 0.52 K/μL; RBC (ob/ob mice; 8 week): 9.22 ± 0.12 M/μL; HGB (ob/ob mice; 8 week): 13.60 ± 0.19 g/dL; HCT (ob/ob mice; 8 week): 49.25 ± 0.78%; PLT (ob/ob mice; 8 week): 1031 ± 55 K/μL
CSc1oc(-c2ccccc2)nc1S(=O)(=O)c1ccc(F)cc1 [MSL]	significantly increased	reduced non-fasting blood glucose level and glucose intolerance in mice fed high-fat diet (HFD). however, statistical significance was not achieved for most comparisons	reduced non-fasting blood glucose level and glucose intolerance in mice fed high-fat diet (HFD). however, statistical significance was not achieved for most comparisons	less than 10%	reduced	not changed	improved	no significant alteration	1.1 ± 0.10	267 ± 35.02^b U/L	183.7 ± 35.71^b U/L	158.1 ± 16.39^c U/L	21.13 ± 1.38	11.13 ± 0.24	323.8 ± 29.68	0.75 ± 0.14	<0.5	<5	1428 ± 148.90^b U/L	150 ± 12.22	TG (ob/ob mice; 8 week): 13.9 ± 16.41^a mg/dL; BASO (ob/ob mice; 8 week): 0.05 ± 0.01 K/μL; EOS (ob/ob mice; 8 week): 0.165 ± 0.06 K/μL; MONO (ob/ob mice; 8 week): 0.35 ± 0.109 K/μL; NEU (ob/ob mice; 8 week): 2.34 ± 0.51 K/μL; LYM (ob/ob mice; 8 week): 4.73 ± 0.95 K/μL; WBC (ob/ob mice; 8 week): 7.64 ± 1.54 K/μL; RBC (ob/ob mice; 8 week): 8.82 ± 0.54 M/μL; HGB (ob/ob mice; 8 week): 14.30 ± 0.56 g/dL; HCT (ob/ob mice; 8 week): 46.9 ± 2.4%; PLT (ob/ob mice; 8 week): 1081 ± 61 K/μL
